This is an account of results in patent publication US20120101134A1, “5-MEMBERED HETEROARYL DERIVATIVES USED AS SPHINGOSINE 1-PHOSPHATE RECEPTOR AGONISTS” (GLAXO GROUP LIMITED, priority 2009, published 2012).

What is called EC50 is the concentration needed to bring the measured effect to its halfway point. A high value points to weaker potency.

This test has as its target T1, human Endothelial Differentiation Gene 1 (EDG1) (Homo sapiens, UniProt P21453).
T1 construct: TEV protease site; Gal4-VP16 transcription factor; expressed in transfected cells; host or cells: EDG1-bla/U2OS (Tango GPCR-bla U2OS parental cell line)
Description: S1P1 Tango assay - 384 well format. As to conditions: EDG1-bla/U2OS cells, agonist. Type of test: cell-based. How it is done: S1P1 Tango assay—384 Well Format
Recombinant EDG1-bla/U2OS cells (contain the human Endothelial Differentiation Gene 1 (EDG1) linked to a TEV protease site and a Gal4-VP16 transcription factor stably integrated into the Tango GPCR-bla U2OS parental cell line) were harvested from growth medium and passaged into assay medium (Invitrogen Freestyle Expression Medium). The cells were starved for 24 hours at 37° C., 5% CO2, harvested and resuspended in assay medium at a density of ˜200,000 cells/ml. All test compounds were dissolved in DMSO at a concentration of 10 mM and were prepared in 100% DMSO to provide 10 point dose response curves. Test compounds prepared by Bravo (Velocity11) were added to wells in columns 2-11 and 13-22; DMSO was added to wells in columns 12 and 23 as unstimulated controls and assay medium was added to wells in columns 1 and 24 as cell-free controls. An S1P1 agonist was added to wells in row 2, columns 2-11 as stimulated controls and test compounds were added to wells in row 2, columns 13-22 and rows 3-15, columns 2-11/13-22 (row 1 and 16 were empty and not used). Compounds in solution were added to the assay plate (Greiner 781090) using an Echo (Labcyte) dose-response program (50 nl/well). The unstimulated and cell-free controls were loaded with 50 nl/well pure DMSO to ensure that the DMSO concentration was constant across the plate for all assays.
50 μl of the cell suspension was added to each well in columns 2-23 of the plate (˜10,000 cells per well). 50 μl of assay medium was added to each well in the cell-free controls (columns 1 and 24). The cells were incubated overnight at 37° C./5% CO2.
10 μl of 6× substrate mixture (LiveBLAzer™-FRET B/G substrate (CCF4-AM) Cat #K1096 from Invitrogen, Inc.) was added to each well using Bravo and the plates incubated at room temperature for 2 h in the dark. The plate was finally read on EnVision using one excitation channel (409 nm) and two emission channels (460 nm and 530 nm).
The blue/green emission ratio (460 nm/530 nm) was calculated for each well, by dividing the background-subtracted Blue emission values by the background-subtracted Green emission values. The dose response curve is based on sigmoidal dose-response model. All ratio data was normalized based upon the maximum emission ratio of positive control and minimum emission ratio of negative control (DMSO) on each plate. The intrinsic activity (IA) of each compound would be the normalized percentage of its maximum response after curve fitting.

T1 sequence (P21453 whole entry, the tested form may be a part): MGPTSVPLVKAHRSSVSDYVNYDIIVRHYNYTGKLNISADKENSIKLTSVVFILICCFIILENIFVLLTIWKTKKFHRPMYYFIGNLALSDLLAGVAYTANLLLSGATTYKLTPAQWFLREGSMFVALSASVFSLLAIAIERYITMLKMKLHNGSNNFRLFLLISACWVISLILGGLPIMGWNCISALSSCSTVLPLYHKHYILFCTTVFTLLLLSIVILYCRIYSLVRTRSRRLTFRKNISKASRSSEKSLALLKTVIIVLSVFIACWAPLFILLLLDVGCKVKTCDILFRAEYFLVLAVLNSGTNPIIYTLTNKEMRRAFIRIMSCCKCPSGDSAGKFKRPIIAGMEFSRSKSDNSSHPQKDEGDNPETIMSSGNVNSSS

In the case of `Cc1c(-c2noc(-c3ccc(OC(C)C)c(Cl)c3)n2)ccnc1CCCC(=O)O` [Example 7, 4-[4-(5-{3-chloro-4-[(1-methylethyl)oxy]phenyl}-1,2,4-oxadiazol-3-yl)-3-methyl-2-pyridinyl]butanoic acid], the EC50 was at most 10 nM. With `CC(C)Oc1ncc(-c2nc(-c3cccc(CCC(=O)O)c3Cl)no2)cc1Cl` [Example 8, 3-[2-chloro-3-(5-{5-chloro-6-[(1-methylethyl)oxy]-3-pyridinyl}-1,2,4-oxadiazol-3-yl)phenyl]propanoic acid] the figure was at most 10 nM.

The compound `CC(C)Oc1ccc(-c2nc(-c3cccc(CCCC(=O)O)c3Cl)no2)cc1C#N` [Example 11, 4-[2-chloro-3-(5-{3-cyano-4-[(1-methylethyl)oxy]phenyl}-1,2,4-oxadiazol-3-yl)phenyl]butanoic acid] showed an EC50 of at most 1 nM. Compound `CC(C)Oc1ccc(-c2nc(-c3cccc(CCCCCC(=O)O)c3Cl)no2)cc1C#N` [Example 12, 6-[2-chloro-3-(5-{3-cyano-4-[(1-methylethyl)oxy]phenyl}-1,2,4-oxadiazol-3-yl)phenyl]hexanoic acid] gave an EC50 of at most 1 nM. `CCc1c(CCCC(=O)O)cccc1-c1noc(-c2cnc(OC(C)C)c(Cl)c2)n1` [Example 14, 4-[3-(5-{5-chloro-6-[(1-methylethyl)oxy]-3-pyridinyl}-1,2,4-oxadiazol-3-yl)-2-ethylphenyl]butanoic acid] showed a concentration giving a half-maximal response (EC50) of at most 10 nM. The same measure for `CCc1c(CCCC(=O)O)cccc1-c1noc(-c2ccc(OC(C)C)c(C#N)c2)n1` [Example 15, 4-[3-(5-{3-cyano-4-[(1-methylethyl)oxy]phenyl}-1,2,4-oxadiazol-3-yl)-2-ethylphenyl]butanoic acid]: at most 1 nM; for `COc1c(CCCC(=O)O)cccc1-c1noc(-c2ccc(OC(C)C)c(Cl)c2)n1` [Example 17, 4-[3-(5-{3-chloro-4-[(1-methylethyl)oxy]phenyl}-1,2,4-oxadiazol-3-yl)-2-(methyloxy)phenyl]butanoic acid]: at most 1 nM. In turn, `CC(C)Oc1ccc(-c2nc(-c3ccnc(CCC(=O)O)c3)no2)cc1C#N` [Example 20, 3-[4-(5-{3-cyano-4-[(1-methylethyl)oxy]phenyl}-1,2,4-oxadiazol-3-yl)-2-pyridinyl]propanoic acid] had an EC50 of at most 1000 nM.

`CC(C)Oc1ccc(-c2nc(-c3ccc(F)c(CCC(=O)O)c3)no2)cc1C#N` [Example 22, 3-[5-(5-{3-cyano-4-[(1-methylethyl)oxy]phenyl}-1,2,4-oxadiazol-3-yl)-2-fluorophenyl]propanoic acid] had an EC50 of at most 1000 nM.

Take `CC(C)Oc1ccc(-c2nc(-c3ccc(F)c(CCCC(=O)O)c3)no2)cc1C#N` [Example 23, 4-[5-(5-{3-cyano-4-[(1-methylethyl)oxy]phenyl}-1,2,4-oxadiazol-3-yl)-2-fluorophenyl]butanoic acid]: the EC50 is at most 1000 nM. With `CC(C)Oc1ccc(-c2nc(-c3cccc(CCC(=O)O)c3C(F)(F)F)no2)cc1C#N` [Example 24, 3-[3-(5-{3-cyano-4-[(1-methylethyl)oxy]phenyl}-1,2,4-oxadiazol-3-yl)-2-(trifluoromethyl)phenyl]propanoic acid] the figure was at most 10 nM. The compound `CC(C)Oc1ccc(-c2nc(-c3cccc(CCCC(=O)O)c3C(F)(F)F)no2)cc1C#N` [Example 25, 4-[3-(5-{3-cyano-4-[(1-methylethyl)oxy]phenyl}-1,2,4-oxadiazol-3-yl)-2-(trifluoromethyl)phenyl]butanoic acid] showed a concentration for a half-maximal effect (EC50) of at most 100 nM. The same measure for `CCc1c(CCCC(=O)O)cccc1-c1noc(-c2ccc(OC(C)C)c(Cl)c2)n1` [Example 28, 4-[3-(5-{3-chloro-4-[(1-methylethyl)oxy]phenyl}-1,2,4-oxadiazol-3-yl)-2-ethylphenyl]butanoic acid]: at most 1 nM; for `CCc1c(CCC(=O)O)cccc1-c1noc(-c2ccc(OC(C)C)c(Cl)c2)n1` [Example 29, 3-[3-(5-{3-chloro-4-[(1-methylethyl)oxy]phenyl}-1,2,4-oxadiazol-3-yl)-2-ethylphenyl]propanoic acid]: at most 1 nM; for `COc1c(CCC(=O)O)cc(F)cc1-c1noc(-c2ccc(OC(C)C)c(C#N)c2)n1` [Example 30, 3-[3-(5-{3-cyano-4-[(1-methylethyl)oxy]phenyl}-1,2,4-oxadiazol-3-yl)-5-fluoro-2-(methyloxy)phenyl]propanoic acid]: at most 1 nM. With `COc1c(CCCC(=O)O)cc(F)cc1-c1noc(-c2ccc(OC(C)C)c(C#N)c2)n1` [Example 31, 4-[3-(5-{3-cyano-4-[(1-methylethyl)oxy]phenyl}-1,2,4-oxadiazol-3-yl)-5-fluoro-2-(methyloxy)phenyl]butanoic acid] the figure was at most 1 nM; with `COc1c(CCCC(=O)O)cc(F)cc1-c1noc(-c2cnc(OC(C)C)c(Cl)c2)n1` [Example 32, 4-[3-(5-{5-chloro-6-[(1-methylethyl)oxy]-3-pyridinyl}-1,2,4-oxadiazol-3-yl)-5-fluoro-2-(methyloxy)phenyl]butanoic acid], at most 10 nM. The same measure for `COc1c(CCC(=O)O)cc(F)cc1-c1noc(-c2cnc(OC(C)C)c(Cl)c2)n1` [Example 33, 3-[3-(5-{5-chloro-6-[(1-methylethyl)oxy]-3-pyridinyl}-1,2,4-oxadiazol-3-yl)-5-fluoro-2-(methyloxy)phenyl]propanoic acid]: at most 100 nM; for `COc1c(CCC(=O)O)cc(F)cc1-c1noc(-c2ccc(OC(C)C)c(Cl)c2)n1` [Example 34, 3-[3-(5-{3-chloro-4-[(1-methylethyl)oxy]phenyl}-1,2,4-oxadiazol-3-yl)-5-fluoro-2-(methyloxy)phenyl]propanoic acid]: at most 10 nM. For the compound `COc1c(CCCC(=O)O)cc(F)cc1-c1noc(-c2ccc(OC(C)C)c(Cl)c2)n1` [Example 35, 4-[3-(5-{3-chloro-4-[(1-methylethyl)oxy]phenyl}-1,2,4-oxadiazol-3-yl)-5-fluoro-2-(methyloxy)phenyl]butanoic acid], the EC50 was at most 1 nM. With `CCCc1c(CCCC(=O)O)cccc1-c1noc(-c2ccc(OC(C)C)c(Cl)c2)n1` [Example 36, 4-[3-(5-{3-chloro-4-[(1-methylethyl)oxy]phenyl}-1,2,4-oxadiazol-3-yl)-2-propylphenyl]butanoic acid] the figure was at most 10 nM. Regarding `CCCc1c(CCCC(=O)O)cccc1-c1noc(-c2ccc(OC(C)C)c(C#N)c2)n1` [Example 37, 4-[3-(5-{3-cyano-4-[(1-methylethyl)oxy]phenyl}-1,2,4-oxadiazol-3-yl)-2-propylphenyl]butanoic acid], the EC50 was at most 10 nM. The same measure for `CCc1c(OCCCC(=O)O)cccc1-c1noc(-c2ccc(OC(C)C)c(C#N)c2)n1` [Example 38, 4-{[3-(5-{3-cyano-4-[(1-methylethyl)oxy]phenyl}-1,2,4-oxadiazol-3-yl)-2-ethylphenyl]oxy}butanoic acid]: at most 10 nM; for `CCc1c(OCCCC(=O)O)cccc1-c1noc(-c2ccc(OC(C)C)c(Cl)c2)n1` [Example 39, 4-{[3-(5-{3-chloro-4-[(1-methylethyl)oxy]phenyl}-1,2,4-oxadiazol-3-yl)-2-ethylphenyl]oxy}butanoic acid]: at most 1 nM. With `CCc1c(OCC(=O)O)cccc1-c1noc(-c2ccc(OC(C)C)c(C#N)c2)n1` [Example 40, {[3-(5-{3-cyano-4-[(1-methylethyl)oxy]phenyl}-1,2,4-oxadiazol-3-yl)-2-ethylphenyl]oxy}acetic acid] the figure was at most 10 nM; with `CCc1c(CCCC(=O)O)cccc1-c1nnc(-c2ccc(OC(C)C)c(C#N)c2)o1` [Example 41, 4-[3-(5-{3-cyano-4-[(1-methylethyl)oxy]phenyl}-1,3,4-oxadiazol-2-yl)-2-ethylphenyl]butanoic acid], at most 10 nM; with `CCc1c(CNCCC(=O)O)cccc1-c1nsc(-c2ccc(OC(C)C)c(C#N)c2)n1` [Example 48, N-{[3-(5-{3-cyano-4-[(1-methylethyl)oxy]phenyl}-1,2,4-thiadiazol-3-yl)-2-ethylphenyl]methyl}-b-alanine], at most 10 nM. `CCc1c(CCN(C)CC(=O)O)cccc1-c1nsc(-c2ccc(OC(C)C)c(Cl)c2)n1` [Example 49, N-{2-[3-(5-{3-chloro-4-[(1-methylethyl)oxy]phenyl}-1,2,4-thiadiazol-3-yl)-2-ethylphenyl]ethyl}-N-methylglycine] had a 50% effective concentration (EC50) of at most 1 nM.
